target: T1, Bifunctional epoxide hydrolase 2 (Homo sapiens, UniProt P34913); assay: Inhibition of recombinant human soluble epoxide hydrolase using PHOME as substrate incubated for 5 mins followed by substrate addition by fluorescence assay
T1 sequence (P34913 whole entry): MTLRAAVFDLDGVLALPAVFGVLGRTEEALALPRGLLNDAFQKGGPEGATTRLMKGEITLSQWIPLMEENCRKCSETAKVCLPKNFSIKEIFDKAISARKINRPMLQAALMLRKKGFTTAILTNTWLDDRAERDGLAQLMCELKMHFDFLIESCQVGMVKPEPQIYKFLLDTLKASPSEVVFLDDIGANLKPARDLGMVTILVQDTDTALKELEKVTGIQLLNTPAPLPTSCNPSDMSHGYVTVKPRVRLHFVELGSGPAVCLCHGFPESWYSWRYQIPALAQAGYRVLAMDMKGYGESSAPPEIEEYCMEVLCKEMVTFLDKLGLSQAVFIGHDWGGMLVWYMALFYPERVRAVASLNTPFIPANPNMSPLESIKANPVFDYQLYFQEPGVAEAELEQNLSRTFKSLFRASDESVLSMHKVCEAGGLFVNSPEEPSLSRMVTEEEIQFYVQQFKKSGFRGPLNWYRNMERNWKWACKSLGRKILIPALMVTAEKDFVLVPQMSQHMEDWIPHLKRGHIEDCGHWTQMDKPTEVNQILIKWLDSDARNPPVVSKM

IC50 [nM] | SMILES
1.82 | CCOC(=O)C1=C(c2ccccc2)NC(=O)NC1c1ccc(NC(=O)c2ccc(OC)cc2)cc1 (stereo not drawn)
0.48 | CCOC(=O)C1=C(c2ccccc2)NC(=O)NC1c1ccc(NC(=O)c2ccc(C)cc2)cc1 (stereo not drawn)
0.96 | CCOC(=O)C1=C(c2ccccc2)NC(=O)NC1c1ccc(NC(=O)c2ccc(F)cc2)cc1 (stereo not drawn)
0.48 | CCOC(=O)C1=C(c2ccccc2)NC(=O)NC1c1ccc(NC(=O)c2ccc(Cl)cc2)cc1 (stereo not drawn)
2 | CCOC(=O)C1=C(c2ccccc2)NC(=O)NC1c1ccc(NC(=O)c2ccc([N+](=O)[O-])cc2)cc1 (stereo not drawn)
2.22 | CCOC(=O)C1=C(c2ccccc2)NC(=O)NC1c1ccc(NC(=O)CCC(=O)O)cc1 (stereo not drawn)
1.92 | CCOC(=O)C1=C(c2ccccc2)NC(=O)NC1c1ccc(NC(=O)c2ccccc2C(=O)O)cc1 (stereo not drawn)
1.22 | CCOC(=O)C1=C(c2ccccc2)NC(=O)NC1c1ccc(NC(=O)c2ccccc2)cc1 (stereo not drawn)
